Measurements taken from patent US11021493B2, “1,4-thiazine dioxide and 1,2,4-thiadiazine dioxide derivatives as beta-secretase inhibitors and methods of use” (AMGEN INC., priority 2016, dated 2021).

What was measured:
[1] = molecular target: T1, BACE1 (Homo sapiens (Human), UniProt P56817); test: In vitro enzymatic BACE1 FRET assay; format: biochemical; conditions: read-out: BACE1 Enzyme IC50
Target sequence in this assay (P56817 46-501): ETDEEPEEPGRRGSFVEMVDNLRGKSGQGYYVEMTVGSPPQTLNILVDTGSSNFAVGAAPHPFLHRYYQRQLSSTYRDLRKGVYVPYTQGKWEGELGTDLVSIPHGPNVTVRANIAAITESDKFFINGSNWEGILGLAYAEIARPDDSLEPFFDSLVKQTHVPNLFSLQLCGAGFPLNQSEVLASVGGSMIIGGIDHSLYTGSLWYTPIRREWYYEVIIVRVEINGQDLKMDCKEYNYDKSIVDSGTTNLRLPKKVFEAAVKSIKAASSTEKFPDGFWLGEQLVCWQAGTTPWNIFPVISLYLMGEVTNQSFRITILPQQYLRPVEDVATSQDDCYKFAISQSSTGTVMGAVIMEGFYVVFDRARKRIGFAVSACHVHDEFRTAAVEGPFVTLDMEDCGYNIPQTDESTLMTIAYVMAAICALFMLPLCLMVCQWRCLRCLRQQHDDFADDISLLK

[2] = molecular target: human recombinant BACE2 (Homo sapiens (Human), UniProt Q9Y5Z0); test: In vitro enzymatic BACE2 FRET assay; format: biochemical; conditions: read-out: BACE2 Enzyme IC50
Chain of human recombinant BACE2 (Q9Y5Z0 63-518): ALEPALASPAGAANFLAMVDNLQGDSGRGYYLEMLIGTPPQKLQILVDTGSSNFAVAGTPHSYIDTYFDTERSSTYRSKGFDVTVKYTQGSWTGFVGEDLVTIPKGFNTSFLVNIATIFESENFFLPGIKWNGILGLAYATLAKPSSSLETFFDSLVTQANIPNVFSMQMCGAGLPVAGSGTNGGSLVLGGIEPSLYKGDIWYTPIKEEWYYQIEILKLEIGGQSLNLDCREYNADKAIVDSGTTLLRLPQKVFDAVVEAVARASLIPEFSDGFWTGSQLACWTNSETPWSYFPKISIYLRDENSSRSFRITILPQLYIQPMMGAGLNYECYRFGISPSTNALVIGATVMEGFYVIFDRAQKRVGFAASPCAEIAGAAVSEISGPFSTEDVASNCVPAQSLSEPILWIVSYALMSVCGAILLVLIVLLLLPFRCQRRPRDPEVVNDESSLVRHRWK

[3] = molecular target: T1, BACE1; test: In vitro BACE1 cell-based assay (Aβ40 in conditioned medium of cells stably expressing APP, HTRF); conditions: Aβ40 in conditioned media after 24 h incubation
Target sequence in this assay (P56817 46-501, species assumed): as the sequence (P56817 46-501) above

[4] = molecular target: Cathepsin D (CatD) (Homo sapiens (Human), UniProt P07339); test: In vitro enzymatic Cathepsin D (CatD) FRET assay; format: biochemical; conditions: read-out: Cat D Enzyme IC50
Chain of Cathepsin D (CatD) (P07339 65-412, species assumed): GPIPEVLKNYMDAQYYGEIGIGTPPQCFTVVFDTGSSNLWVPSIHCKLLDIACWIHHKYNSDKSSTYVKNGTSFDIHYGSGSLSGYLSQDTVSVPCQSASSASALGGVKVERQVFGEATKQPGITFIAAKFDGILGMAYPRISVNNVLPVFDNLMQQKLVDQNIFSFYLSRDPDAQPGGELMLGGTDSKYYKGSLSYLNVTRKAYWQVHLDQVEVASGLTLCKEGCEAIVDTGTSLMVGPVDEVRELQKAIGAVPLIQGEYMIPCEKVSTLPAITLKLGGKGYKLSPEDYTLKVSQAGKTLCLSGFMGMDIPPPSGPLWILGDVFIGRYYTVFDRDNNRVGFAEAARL

Row | SMILES | IC50 [1] [nM] | IC50 [2] [nM] | IC50 [3] [nM] | IC50 [4] [nM]
1 | CN1C(N)=N[C@](C)(c2cc(/C=C(\F)c3cnc(OCC4CC4)cn3)ccc2F)CS1(=O)=O [Example 143, (R,Z)-3-amino-5-(5-(2-(5-(cyclopropylmethoxy)pyrazin-2-yl)-2-fluorovinyl)-2-fluorophenyl)-2,5-dimethyl-5,6-dihydro-2H-1,2,4-thiadiazine 1,1-dioxide] | 44 | 222 | 380 | 30500
2 | CN1C(N)=N[C@](C)(c2cc(/C=C(\F)c3cnc(C4CC4)cn3)ccc2F)CS1(=O)=O [Example 266, (R,Z)-3-amino-5-(5-(2-(5-cyclopropylpyrazin-2-yl)-2-fluorovinyl)-2-fluorophenyl)-2,5-dimethyl-5,6-dihydro-2H-1,2,4-thiadiazine 1,1-dioxide] | 750 | 78 | 653 | 69800
3 | CC1(C)C(N)=N[C@](C)(c2cc(/C=C(\F)c3cnc(OCCn4cccn4)cn3)ccc2F)CS1(=O)=O [Example 157, (R,Z)-3-(5-(2-(5-(2-(1H-pyrazol-1-yl)ethoxy)pyrazin-2-yl)-2-fluorovinyl)-2-fluorophenyl)-5-amino-3,6,6-trimethyl-3,6-dihydro-2H-1,4-thiazine 1,1-dioxide] | 187 | 478 | 181 | 57500
4 | COCCOc1cnc(/C(F)=C/c2ccc(F)c([C@@]3(C)N=C(N)[C@@]4(CF)CC[C@@H]3S4(=O)=O)c2)cn1 [Example 130, (1R,4R,5S)-2-amino-4-(2-fluoro-5-((Z)-2-fluoro-2-(5-(2-methoxyethoxy)pyrazin-2-yl)vinyl)phenyl)-1-(fluoromethyl)-4-methyl-8-thia-3-azabicyclo[3.2.1]oct-2-ene 8,8-dioxide] | 33 | 163 | 60 | 173000
5 | CN1C(N)=N[C@](C)(c2cc(/C=C(\F)c3cnc(OCC(F)(F)C(F)F)cn3)ccc2F)CS1(=O)=O [Example 148, (R,Z)-3-amino-5-(2-fluoro-5-(2-fluoro-2-(5-(2,2,3,3-tetrafluoropropoxy)pyrazin-2-yl)vinyl)phenyl)-2,5-dimethyl-5,6-dihydro-2H-1,2,4-thiadiazine 1,1-dioxide] | 18 | 217 | 88 | 25300
6 | COC(C)COc1cnc(/C(F)=C/c2ccc(F)c([C@@]3(C)N=C(N)[C@@]4(CF)CC[C@@H]3S4(=O)=O)c2)cn1 (stereo partly drawn) [Example 136, (1R,4R,5S)-2-amino-4-(2-fluoro-5-((Z)-2-fluoro-2-(5-(2-methoxypropoxy)pyrazin-2-yl)vinyl)phenyl)-1-(fluoromethyl)-4-methyl-8-thia-3-azabicyclo[3.2.1]oct-2-ene 8,8-dioxide] | 51 | 315 | 218 | 78200
7 | CN1C(N)=N[C@](C)(c2cc(/C=C(\F)c3cnc(C#N)cn3)ccc2F)C2(CC2)S1(=O)=O [Example 147, (R,Z)-5-(2-(3-(6-amino-5,8-dimethyl-4,4-dioxido-4-thia-5,7-diazaspiro[2.5]oct-6-en-8-yl)-4-fluorophenyl)-1-fluorovinyl)pyrazine-2-carbonitrile] | 6 | 184 | 15 | 41100
8 | Cc1cc(C#N)cnc1/C(F)=C/c1ccc(F)c([C@]2(C)CS(=O)(=O)N(C)C(N)=N2)c1 [Example 245, 6-((Z)-2-(3-((5R)-3-amino-2,5-dimethyl-1,1-dioxido-5,6-dihydro-2H-1,2,4-thiadiazin-5-yl)-4-fluorophenyl)-1-fluoroethenyl)-5-methyl-3-pyridinecarbonitrile] | 5 | 21 | 4 | 137000
9 | CN1C(N)=N[C@](C)(c2cc(/C=C(\F)c3cc4c(cn3)OCCC4)ccc2F)CS1(=O)=O [Example 239, (5R)-5-(5-((Z)-2-(3,4-dihydro-2H-pyrano[2,3-c]pyridin-6-yl)-2-fluoroethenyl)-2-fluorophenyl)-2,5-dimethyl-5,6-dihydro-2H-1,2,4-thiadiazin-3-amine 1,1-dioxide] | 530 | 143 | 1020 | 329000
10 | CN1C(N)=N[C@](C)(c2cc(/C=C(\F)c3cnc(Cl)cn3)ccc2F)CS1(=O)=O [Example 111, (R,Z)-3-amino-5-(5-(2-(5-chloropyrazin-2-yl)-2-fluorovinyl)-2-fluorophenyl)-2,5-dimethyl-5,6-dihydro-2H-1,2,4-thiadiazine 1,1-dioxide] | 7 | 5 | 6 | 86300
11 | CN1C(N)=N[C@](C)(c2cc(/C=C(\F)c3ccc(Cl)cn3)ccc2F)CS1(=O)=O [Example 104, (R,Z)-3-amino-5-(5-(2-(5-chloropyridin-2-yl)-2-fluorovinyl)-2-fluorophenyl)-2,5-dimethyl-5,6-dihydro-2H-1,2,4-thiadiazine 1,1-dioxide] | 3 | 2 | 24 | 95000
12 | CC1(C)C(N)=N[C@](C)(c2cc(/C=C(\F)c3cnc(OCC(F)(F)F)cn3)ccc2F)CS1(=O)=O [Example 124, (R,Z)-5-amino-3-(2-fluoro-5-(2-fluoro-2-(5-(2,2,2-trifluoroethoxy)pyrazin-2-yl)vinyl)phenyl)-3,6,6-trimethyl-3,6-dihydro-2H-1,4-thiazine 1,1-dioxide] | 39 | 161 | 134 | 218000
13 | CN1C(N)=N[C@](C)(c2cc(/C=C(\F)c3ccc(C#N)cn3)cc(F)c2F)CS1(=O)=O [Example 107, (R,Z)-6-(2-(3-(3-amino-2,5-dimethyl-1,1-dioxido-5,6-dihydro-2H-1,2,4-thiadiazin-5-yl)-4,5-difluorophenyl)-1-fluorovinyl)nicotinonitrile] | 3 | 25 | 3 | 81800
14 | C=CCOc1cnc(/C(F)=C/c2ccc(F)c([C@@]3(C)N=C(N)[C@@]4(CF)CC[C@@H]3S4(=O)=O)c2)cn1 [Example 125, (1R,4R,5S)-4-(5-((Z)-2-(5-(allyloxy)pyrazin-2-yl)-2-fluorovinyl)-2-fluorophenyl)-2-amino-1-(fluoromethyl)-4-methyl-8-thia-3-azabicyclo[3.2.1]oct-2-ene 8,8-dioxide] | 48 | 163 | 446 | 91200
15 | CN1C(N)=N[C@](C)(c2cc(/C=C(\F)c3ccc(F)cn3)cc(F)c2F)CS1(=O)=O [Example 270, (R,Z)-3-amino-5-(2,3-difluoro-5-(2-fluoro-2-(5-fluoropyridin-2-yl)vinyl)phenyl)-2,5-dimethyl-5,6-dihydro-2H-1,2,4-thiadiazine 1,1-dioxide] | 75 | 28 | 138 | 265000
16 | CN1C(N)=N[C@](C)(c2cc(/C=C(\F)c3ncc4c(n3)OCCO4)ccc2F)CS1(=O)=O [Example 234, (R,Z)-3-Amino-5-(5-(2-(6,7-dihydro-[1,4]dioxino[2,3-d]pyrimidin-2-yl)-2-fluorovinyl)-2-fluorophenyl)-2,5-dimethyl-5,6-dihydro-2H-1,2,4-thiadiazine 1,1-dioxide] | 392 | 554 | 99 | 107000
